According to patent US9676870B2, “Methods of treating atherosclerosis and aneurysm” (The Brigham and Women's Hospital, Inc., priority 2011, dated 2017):
Entries after “also recorded” stand apart in the source; their conditions may differ. Residues, ends and D or L forms follow the SMILES beside them. *: point of attachment. Cbz = O=C(OCc1ccccc1)*; CH2F = FC*

Experiments:
Format in all cases: cell-based
[1] = test system: human monocyte-derived macrophages; experiment: Human monocyte-derived macrophage apoptosis (TUNEL staining)
Method: (§1) Human macrophages were prepared by differentiating Ficoll gradient-separated monocytes from human blood in RPMI with 10% human serum (Gemini Bio-Products, West Sacramento, Calif.) for 10 days on Falcon PRIMARIA™ tissue culture dishes (Becton Dickinson Labware, Franklin Lakes, N.J.) without coating. Mouse thioglycolate (3%, Sigma, St. Louis, Mo.)-stimulated peritoneal macrophages were prepared from WT C57BL/6 mice (Jackson Laboratory), Fcer1a^−/− mice (congenic C57BL/6, N>8) (21), Tlr2^−/− mice (Jackson Laboratory, N16), and […] (Jackson Laboratory, C57BL/6, N8). Cells were cultured in RPMI-1640 with 10% fetal bovine serum (FBS). Human aortic SMCs and ECs were obtained from human donor aortas and subcultured at passages 2-5 in DMEM containing 10% FBS (for SMCs), or in medium 199 containing 20% FBS (for ECs).
(§2) To detect IgE-induced apoptosis, human and mouse macrophages and HuSMC were cultured on 8-well chamber slides, 96-well plates, or 6-well plate pre-coated with 1% gelatin. […]

human macrophages [2] = experiment: IgE-induced human macrophage medium pH reduction
Method: as §1, §2

human macrophages [3] = experiment: IgE-induced human macrophage cell death (MTT assay); conditions: human macrophages from most donors, IgE 50 μg/mL
Method: as §1, §2

human macrophages [4] = experiment: IgE-induced human macrophage IL6 secretion; conditions: human macrophages from most donors; IgE 50 μg/mL
Method: as §1
(§3) To detect cytokine production, cells were starved in corresponding media containing 0.5% FBS overnight, then incubated for 2 days in starvation media containing IgE (50 μg/mL for macrophages; 100 μg/mL for SMCs and ECs). Mouse poorly cytokinergic monomeric IgE H1 DNP-ε-206 (50 μg/mL) (34) and highly cytokinergic aggregated IgE SPE-7 (50 μg/mL) (Sigma) with or without LPS (100 ng/mL), ox-LDL (50 μg/mL), or DNP-HSA (10 ng/mL) were used to stimulate mouse macrophages. Human IgE was obtained from Immunology Consultants Laboratory, Inc. (Newberg, Oreg., RA-80E). […]

[5] = test system: mouse peritoneal macrophages; experiment: Mouse peritoneal macrophage IL6 / MCP-1 production (ELISA, real-time PCR)
Method: as §1, §3

[6] = test system: mouse peritoneal macrophages; experiment: Mouse peritoneal macrophage apoptosis / cell death (TUNEL, MTT); conditions: 50-100 μM EIPA, 50 μg/mL mouse IgE (SPE-7)
Method: as §1, §2

HuECs = experiment: Cultured human EC (HuEC) stimulation: immunoblot, cell death; conditions: IFN-γ 20 ng/mL, 50 μg lysate
Method: as §1, §3

HuSMCs = experiment: Cultured human aortic SMC (HuSMC) stimulation: immunoblot, cytokines, cell death; conditions: IFN-γ 20 ng/mL, 50 μg lysate
Method: as §1, §3

## CCN(c1nc(N)c(C(=O)NC(=N)N)nc1Cl)C(C)C [EIPA, ethylisopropylamiloride]
[1]; 10 μM EIPA, same condition as LPS, 2-3 days, data not shown
  cell death caused by EIPA alone: did not cause any cell death
Human macrophages [2]; 10 μM EIPA, IgE 50 μg/mL
  blocking of IgE-induced medium color change and pH reduction: completely blocked
Human macrophages [2]; EIPA alone, no IgE
  pH change by EIPA treatment alone: did not change pH
Human macrophages [3]
  blocking of IgE-induced cell death: significantly blocked
Human macrophages [4]
  blocking of IgE-induced IL6 secretion: significantly blocked
[5]; 50-100 μM EIPA, 50 μg/mL mouse IgE (SPE-7)
  blocking of IgE-induced macrophage secretion of IL6: blocked significantly
[6]
  blocking of IgE-induced macrophage apoptosis: blocked significantly

## COC(=O)C[C@H](NC(=O)[C@H](C)NC(=O)[C@@H](NC(=O)OCc1ccccc1)C(C)C)C(=O)CF [ZVAD-FMK] (Cbz-Val-Ala-Asp(OMe)-CH2F)
[1]; ZVAD-FMK 20 μM, IgE 50 μg/mL
  blocking of IgE-induced human macrophage apoptosis: blocked; also recorded: efficiently blocks

## dinitrophenyl-human serum albumin [DNP-HSA]
[5]; 10 ng/mL DNP-HSA, pH, cell death and IL6 assays
  impact of antigen on SPE-7 or H1 DNP-ε-206 in macrophage activity assays: no significant impact

B1: IFN-γ: inflammatory cytokine (protein, UniProt P01579 24-161, looked up)
Interferon gamma: QDPYVKEAENLKKYFNAGHSDVADNGTLFLGILKNWKEESDRKIMQSQIVSFYFKLFKNFKDDQSIQKSVETIKEDMNVKFFNSNKKKRDDFEKLTNYSVTDLNVQRKAIHELIQVMAELSPAAKTGKRKRSQMLFRG
HuECs
  FcεR1α expression in ECs: induced FcεR1α expression
HuSMCs
  FcεR1α expression in SMCs: induced FcεR1α expression
